Assay results from ChEMBL document CHEMBL1909046, “DrugMatrix in vitro pharmacology data”.
pIC50, pKi: −log10 of the molar value.

Legend:
[1] = DRUGMATRIX: GABAA, Muscimol, Central radioligand binding (ligand: [3H] Muscimol); assay type: cell membranes, Rattus norvegicus, Wistar, Brain, Membrane; settings: Not Active = under 50% inhibition at 10 µM
[2] = target: Protein kinase C alpha type (Homo sapiens, UniProt P17252); assay type: cell-based; settings: sf9;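 further: inhibition of PKCalpha kinase activity measured in an enzyme assay with histone as the phosphorylation substrate; in other assays of this panel Not Active means under 50% inhibition at 10 µM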
[3] = target: T1, Type-2 angiotensin II receptor (Homo sapiens, UniProt P50052); assay: biochemical; assay type: cell-based, CHO-K1; settings: cho-k1; further: in other assays of this panel Not Active means under 50% inhibition at 10 µM
T1 sequence (P50052 whole entry): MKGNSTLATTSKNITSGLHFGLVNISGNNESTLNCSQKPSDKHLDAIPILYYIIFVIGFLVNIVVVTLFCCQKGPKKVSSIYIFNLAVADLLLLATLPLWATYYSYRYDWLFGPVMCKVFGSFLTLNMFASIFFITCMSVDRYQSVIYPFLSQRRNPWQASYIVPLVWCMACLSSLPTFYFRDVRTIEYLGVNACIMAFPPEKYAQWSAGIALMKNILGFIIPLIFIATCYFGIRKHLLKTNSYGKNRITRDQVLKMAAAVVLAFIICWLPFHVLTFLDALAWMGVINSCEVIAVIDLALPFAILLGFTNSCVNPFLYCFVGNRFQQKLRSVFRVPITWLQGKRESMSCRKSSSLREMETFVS

Glycine receptor = Glycine receptor (Rattus norvegicus, UniProt P22771+P24524+P07727+P20781); assay type: cell membranes, Wistar, Spinal cord, Membrane; further: in other assays of this panel Not Active means under 50% inhibition at 10 µM
[4] = target: Sodium-dependent dopamine transporter (Homo sapiens, UniProt Q01959); assay: DRUGMATRIX: Dopamine Transporter radioligand binding (ligand: [125I] RTI-55); assay type: cell membranes, CHO-K1, Membrane; settings: Not Active = under 50% inhibition at 10 µM; for IC50: cho-k1
[5] = target: 5-hydroxytryptamine receptor 1B (Rattus norvegicus, UniProt P28564); assay type: cell membranes, Wistar, Cerebral cortex, Membrane; further: in other assays of this panel Not Active means under 50% inhibition at 10 µM
[6] = DRUGMATRIX: GABAA, Chloride Channel, TBOB radioligand binding (ligand: [3H] TBOB); assay type: cell membranes, Rattus norvegicus, Wistar, Cerebral cortex, Membrane; settings: Not Active = under 50% inhibition at 10 µM
[7] = target: T2, Cysteinyl leukotriene receptor 1 (Homo sapiens, UniProt Q9Y271); assay type: cell membranes, Membrane; settings: cho-k1; further: in other assays of this panel Not Active means under 50% inhibition at 10 µM
T2 sequence (Q9Y271 whole entry): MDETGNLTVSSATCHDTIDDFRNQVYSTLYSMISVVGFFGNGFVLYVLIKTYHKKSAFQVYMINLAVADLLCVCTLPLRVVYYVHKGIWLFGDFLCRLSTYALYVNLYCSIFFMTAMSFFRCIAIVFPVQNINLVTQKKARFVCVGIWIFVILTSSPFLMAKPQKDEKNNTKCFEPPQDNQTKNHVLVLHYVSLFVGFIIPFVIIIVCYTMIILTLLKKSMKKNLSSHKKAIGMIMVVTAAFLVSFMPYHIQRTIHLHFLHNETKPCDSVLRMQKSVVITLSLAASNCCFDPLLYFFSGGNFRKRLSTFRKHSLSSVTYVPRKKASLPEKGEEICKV

Sequence of Sodium-dependent dopamine transporter (Q01959 whole entry): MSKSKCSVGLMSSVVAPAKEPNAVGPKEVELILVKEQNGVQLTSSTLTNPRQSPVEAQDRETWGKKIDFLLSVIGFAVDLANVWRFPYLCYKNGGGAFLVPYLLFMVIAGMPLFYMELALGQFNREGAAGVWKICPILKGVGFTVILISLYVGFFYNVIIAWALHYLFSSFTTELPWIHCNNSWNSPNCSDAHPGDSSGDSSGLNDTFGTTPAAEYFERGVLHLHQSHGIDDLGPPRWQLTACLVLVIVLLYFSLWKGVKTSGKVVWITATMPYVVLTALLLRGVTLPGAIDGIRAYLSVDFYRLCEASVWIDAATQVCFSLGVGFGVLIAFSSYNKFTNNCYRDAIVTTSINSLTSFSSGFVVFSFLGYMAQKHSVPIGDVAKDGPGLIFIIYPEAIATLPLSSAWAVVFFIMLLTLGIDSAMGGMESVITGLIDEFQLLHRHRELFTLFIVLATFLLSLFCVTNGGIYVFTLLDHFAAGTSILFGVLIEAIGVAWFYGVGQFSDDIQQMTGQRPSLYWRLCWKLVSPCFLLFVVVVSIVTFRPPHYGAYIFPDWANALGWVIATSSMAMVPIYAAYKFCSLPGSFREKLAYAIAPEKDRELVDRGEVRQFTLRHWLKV
Sequence of 5-hydroxytryptamine receptor 1B (P28564 whole entry): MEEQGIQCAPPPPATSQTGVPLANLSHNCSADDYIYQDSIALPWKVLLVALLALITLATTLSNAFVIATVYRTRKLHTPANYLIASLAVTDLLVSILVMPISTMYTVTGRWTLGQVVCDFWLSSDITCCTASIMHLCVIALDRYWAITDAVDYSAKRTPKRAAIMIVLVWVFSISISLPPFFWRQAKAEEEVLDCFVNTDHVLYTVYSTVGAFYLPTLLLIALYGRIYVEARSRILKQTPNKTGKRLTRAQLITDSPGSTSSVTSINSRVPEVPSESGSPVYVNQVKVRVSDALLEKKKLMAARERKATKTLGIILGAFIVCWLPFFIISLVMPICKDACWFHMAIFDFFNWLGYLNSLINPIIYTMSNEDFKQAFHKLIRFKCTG

SMILES | IC50 [1] | Ki [1] | IC50 [2] | IC50 [3] | IC50 (Glycine receptor) | IC50 [4] | IC50 [5] | IC50 [6] | Ki [6] | IC50 [7] | pIC50 ([4]; read-out: IC50) | pKi ([4]; read-out: Ki) | pIC50 ([5]; read-out: IC50) | pKi ([5]; read-out: Ki)
Cc1cc(O)cc(C)c1Cl [CHLOROXYLENOL] | Not Active | Not Active | Not Active | Not Active | Not Active | Not Active | Not Active | Not Active | Not Active | Not Active | – | – | – | –
CCCNC(=O)NS(=O)(=O)c1ccc(Cl)cc1 [CHLORPROPAMIDE] | Not Active | Not Active | Not Active | Not Active | Not Active | Not Active | Not Active | Not Active | Not Active | Not Active | – | – | – | –
NS(=O)(=O)c1cc(C2(O)NC(=O)c3ccccc32)ccc1Cl (configuration not stated) [CHLORTHALIDONE] | Not Active | Not Active | Not Active | Not Active | Not Active | Not Active | Not Active | Not Active | Not Active | Not Active | – | – | – | –
O=C(O)CC(O)(CC(=O)O)C(=O)O [CITRIC ACID] | Not Active | Not Active | Not Active | Not Active | Not Active | Not Active | Not Active | Not Active | Not Active | Not Active | – | – | – | –
CC(C)NCC(O)c1ccccc1Cl (configuration not stated) [CLORPRENALINE] | Not Active | Not Active | Not Active | Not Active | Not Active | Not Active | Not Active | Not Active | Not Active | Not Active | – | – | – | –
CN1CCN(C(c2ccccc2)c2ccccc2)CC1 [CYCLIZINE] | Not Active | Not Active | Not Active | Not Active | Not Active | – | Not Active | Not Active | Not Active | Not Active | 6.12 | 6.22 | – | –
CN1C[C@@H]2C[C@H]1CN2c1cc2c(cc1F)c(=O)c(C(=O)O)cn2C1CC1 [DANOFLOXACIN] | Not Active | Not Active | Not Active | Not Active | Not Active | Not Active | Not Active | Not Active | Not Active | Not Active | – | – | – | –
COc1cccc2c1C(=O)c1c(O)c3c(c(O)c1C2=O)C[C@@](O)(C(C)=O)C[C@@H]3O[C@H]1C[C@H](N)[C@H](O)[C@H](C)O1 [DAUNORUBICIN] | Not Active | Not Active | Not Active | Not Active | Not Active | Not Active | Not Active | Not Active | Not Active | Not Active | – | – | – | –
O=C(O)c1cc(-c2ccc(F)cc2F)ccc1O [DIFLUNISAL] | Not Active | Not Active | Not Active | Not Active | Not Active | Not Active | Not Active | Not Active | Not Active | Not Active | – | – | – | –
C[S+](C)[O-] [DIMETHYL SULFOXIDE] | Not Active | Not Active | Not Active | Not Active | Not Active | Not Active | Not Active | Not Active | Not Active | Not Active | – | – | – | –
CC1=NN(c2ccccc2)C(=O)C1 [EDARAVONE] | Not Active | Not Active | Not Active | Not Active | Not Active | Not Active | Not Active | Not Active | Not Active | Not Active | – | – | – | –
CC(C)C[C@H]1C(=O)N2CCC[C@H]2[C@]2(O)O[C@](NC(=O)[C@@H]3C=C4c5cccc6[nH]cc(c56)C[C@H]4N(C)C3)(C(C)C)C(=O)N12 [ERGOCRYPTINE] | Not Active | Not Active | Not Active | Not Active | Not Active | Not Active | – | Not Active | Not Active | Not Active | – | – | 8.09 | 8.30
